Patent EP4755888A1 (ILAb Co., Ltd., priority 2023, dated 2025)

The molecules below were run against PD-1/PD-L1 (Homo sapiens, UniProt Q9NZQ7) (assay: TR-FRET PD-1/PD-L1 binding inhibition at the molecular level (free proteins)). Conditions: Tag1-PD-L1 and Tag2-PD-1 proteins, twelve concentrations from 200 nM, 2 hours at room temperature, read-out: FRET assay (IC50).
In short: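 HTRF read-out at 665/620 nm after 2 h at room temperature. Detection used anti-Tag1 Eu cryptate plus anti-Tag2 XL665 antibodies. Tagged PD-L1 and PD-1 proteins were pre-mixed with compound across twelve […] 1:2 dilutions starting at 200 nM.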

Chain of PD-1/PD-L1 (Q9NZQ7 19-238 limits assumed): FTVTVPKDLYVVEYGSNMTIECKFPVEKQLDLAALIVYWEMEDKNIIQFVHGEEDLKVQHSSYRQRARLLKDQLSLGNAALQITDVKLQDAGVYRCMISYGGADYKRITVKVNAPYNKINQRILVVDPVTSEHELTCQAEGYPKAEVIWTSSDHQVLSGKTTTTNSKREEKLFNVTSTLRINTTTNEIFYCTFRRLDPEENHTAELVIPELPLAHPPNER

IC50 [µM] | Compound
< 0.01 | O=C(Nc1cccc(-c2cccc(NC(=O)c3nc4c(s3)CN(CCF)CC4)c2Cl)c1Cl)c1cc2n(n1)CCCC2NCCO (stereo not shown) [Compound 150-1, N-(2,2'-dichloro-3'-(4-((2-hydroxyethyl)amino)-4,5,6,7-tetrahydropyrazolo[1,5-a]pyridine-2-carboxamido)-[1,1'-biphenyl]-3-yl)-5-(2-fluoroethyl)-4,5,6,7-tetrahydrothiazolo[5,4-c]pyridine-2-carboxamide]
< 0.01 | CC(=O)NCCNC1CCCn2nc(-c3cccc(-c4cccc(Nc5nccc6cc(CN7CC[C@@H](O)C7)cnc56)c4C)c3C)cc21 (stereo partly drawn) [Compound 175, N-(2-((2-(3'-((3-(((R)-3-hydroxypyrrolidin-1-yl)methyl)-1,7-naphthyridin-8-yl)amino)-2,2'-dimethyl-[1,1'-biphenyl]-3-yl)-4,5,6,7-tetrahydropyrazolo[1,5-a]pyridin-4-yl)amino)ethyl)acetamide]
< 0.01 | COc1cc(-c2cccc(-c3cccc(NC(=O)c4cc5n(n4)CCCC5O)c3C)c2C)cc(F)c1CNCCNC(C)=O (stereo not shown) [Compound 112-1, N-(4"-(((2-acetamidoethyl)amino)methyl)-3"-fluoro-5"-methoxy-2,2'-dimethyl-[1,1':3',1"-terphenyl]-3-yl)-4-hydroxy-4,5,6,7-tetrahydropyrazolo[1,5-a]pyridine-2-carboxamide]
0.01 to 0.1 | O=C(Nc1cccc(-c2cccc(Nc3nc(C(F)F)nc4cc(CN5CC(F)C5)cnc34)c2Cl)c1Cl)c1cc2n(n1)CCC[C@H]2N1CCC(O)CC1 [Compound 270, (R)-N-(2,2'-dichloro-3'-((2-(difluoromethyl)-7-((3-fluoroazetidin-1-yl)methyl)pyrido[3,2-d]pyrimidin-4-yl)amino)-[1,1'-biphenyl]-3-yl)-4-(4-hydroxypiperidin-1-yl)-4,5,6,7-tetrahydropyrazolo[1,5-a]pyridine-2-carboxamide]
< 0.01 | CN[C@H]1CCCn2nc(C(=O)Nc3cccc(-c4cccc(NC(=O)c5cc6n(n5)CCC[C@@H]6NC)c4C)c3C)cc21 [Compound 312, (4S,4'S)-N,N'-(2,2'-dimethyl-[1,1'-biphenyl]-3,3'-diyl)bis(4-(methylamino)-4,5,6,7-tetrahydropyrazolo[1,5-a]pyridine-2-carboxamide)]
< 0.01 | COc1cc(-c2cccc(-c3cccc(NC(=O)c4cc5n(n4)CCCC5O)c3C)c2C)cc(F)c1CNC[C@@H]1CCC(=O)N1 (stereo partly drawn) [Compound 112, N-(3"-fluoro-5"-methoxy-2,2'-dimethyl-4"-(((((S)-5-oxopyrrolidin-2-yl)methyl)amino)methyl)-[1,1':3',1"-terphenyl]-3-yl)-4-hydroxy-4,5,6,7-tetrahydropyrazolo[1,5-a]pyridine-2-carboxamide]
< 0.01 | Cc1c(NC(=O)c2cc3n(n2)CCCC3O)cccc1-c1cccc(-c2nc3cc(CN4CC[C@@H](C(=O)O)C4)cc(C#N)c3o2)c1C (stereo partly drawn) [Compound 61, (3R)-1-((7-cyano-2-(3'-(4-hydroxy-4,5,6,7-tetrahydropyrazolo[1,5-a]pyridine-2-carboxamido)-2,2'-dimethyl-[1,1'-biphenyl]-3-yl)benzo[d]oxazol-5-yl)methyl)pyrrolidine-3-carboxylic acid]
< 0.01 | COc1cc(-c2cccc(-c3cccc(NC(=O)c4cc5n(n4)CCCC5O)c3C)c2C)cc(F)c1CN1CC[C@@H](O)C1 (stereo partly drawn) [Compound 113, N-(3"-fluoro-4"-(((R)-3-hydroxypyrrolidin-1-yl)methyl)-5"-methoxy-2,2'-dimethyl-[1,1':3',1"-terphenyl]-3-yl)-4-hydroxy-4,5,6,7-tetrahydropyrazolo[1,5-a]pyridine-2-carboxamide]
< 0.01 | Cc1c(NC(=O)c2cc3n(n2)CCCC3NCCO)cccc1-c1cccc(Nc2nccc3cc(CN4CC[C@@H](O)C4)cnc23)c1Cl (stereo partly drawn) [Compound 37, N-(2'-chloro-3'-((3-(((R)-3-hydroxypyrrolidin-1-yl)methyl)-1,7-naphthyridin-8-yl)amino)-2-methyl-[1,1'-biphenyl]-3-yl)-4-((2-hydroxyethyl)amino)-4,5,6,7-tetrahydropyrazolo[1,5-a]pyridine-2-carboxamide]
< 0.01 | O=C(Nc1cccc(-c2cccc(Nc3nc(C(F)F)nc4cc(CN5CC[C@@H](O)C5)cnc34)c2Cl)c1Cl)c1cc2n(n1)CCC[C@@H]2N1CC(C(=O)O)C1 [Compound 261, 1-((S)-2-((2,2'-dichloro-3'-((2-(difluoromethyl)-7-(((R)-3-hydroxypyrrolidin-1-yl)methyl)pyrido[3,2-d]pyrimidin-4-yl)amino)-[1,1'-biphenyl]-3-yl)carbamoyl)-4,5,6,7-tetrahydropyrazolo[1,5-a]pyridin-4-yl)azetidine-3-carboxylic acid]
0.01 to 0.1 | Cc1c(NC(=O)c2cc3n(n2)CCC[C@@H]3N2CCC(O)CC2)cccc1-c1cccc(Nc2nc(C(F)(F)F)nc3cccnc23)c1C (stereo in doubt) [Compound 286, (S)-N-(2,2'-dimethyl-3'-((2-(trifluoromethyl)pyrido[3,2-d]pyrimidin-4-yl)amino)-[1,1'-biphenyl]-3-yl)-4-(4-hydroxypiperidin-1-yl)-4,5,6,7-tetrahydropyrazolo[1,5-a]pyridine-2-carboxamide]
< 0.01 | Cc1c(NC(=O)c2ccc(CN3CC[C@@H](O)C3)cn2)cccc1-c1cccc(NC(=O)c2cc3n(n2)CCCC3N2CC[C@@H](C(=O)O)C2)c1C (stereo partly drawn) [Compound 96, (3R)-1-(2-((3'-(5-(((R)-3-hydroxypyrrolidin-1-yl)methyl)picolinamido)-2,2'-dimethyl-[1,1'-biphenyl]-3-yl)carbamoyl)-4,5,6,7-tetrahydropyrazolo[1,5-a]pyridin-4-yl)pyrrolidine-3-carboxylic acid]
0.01 to 0.1 | CC(C)c1nc(Nc2cccc(-c3cccc(NC(=O)c4cc5n(n4)CCC[C@@H]5NC(C)(C)C(=O)O)c3Cl)c2Cl)c2ncccc2n1 [Compound 299, (S)-2-((2-((2,2'-dichloro-3'-((2-isopropyl-pyrido[3,2-d]pyrimidin-4-yl)amino)-[1,1'-biphenyl]-3-yl)carbamoyl)-4,5,6,7-tetrahydropyrazolo[1,5-a]pyridin-4-yl)amino)-2-methylpropanoic acid]
< 0.01 | Cc1c(NC(=O)c2cc3n(n2)CCCC3NCC(=O)O)cccc1-c1cccc(-c2nc3c(s2)CCN(C)C3)c1C (stereo not shown) [Compound 153, 2-((2-((2,2'-dimethyl-3'-(5-methyl-4,5,6,7-tetrahydrothiazolo[4,5-c]pyridin-2-yl)-[1,1'-biphenyl]-3-yl)carbamoyl)-4,5,6,7-tetrahydropyrazolo[1,5-a]pyridin-4-yl)amino)acetic acid]
< 0.01 | O=C(Nc1cccc(-c2cccc(NC(=O)c3cc4n(n3)CCCC4N3CC[C@@H](C(=O)O)C3)c2Cl)c1Cl)c1ccc(CN2CC[C@@H](O)C2)c(F)n1 (stereo partly drawn) [Compound 203, (3R)-1-(2-((2,2'-dichloro-3'-(6-fluoro-5-(((R)-3-hydroxypyrrolidin-1-yl)methyl)picolinamido)-[1,1'-biphenyl]-3-yl)carbamoyl)-4,5,6,7-tetrahydropyrazolo[1,5-a]pyridin-4-yl)pyrrolidine-3-carboxylic acid]

Compound | IC50 [µM]
Cc1c(NC(=O)c2ccc(CN3CC[C@@H](O)C3)cn2)cccc1-c1cccc(NC(=O)c2cc3n(n2)CCCC3NC[C@@H]2CCC(=O)N2)c1C (stereo partly drawn) [Compound 93, N-(3'-(5-(((R)-3-hydroxypyrrolidin-1-yl)methyl)picolinamido)-2,2'-dimethyl-[1,1'-biphenyl]-3-yl)-4-((((S)-5-oxopyrrolidin-2-yl)methyl)amino)-4,5,6,7-tetrahydropyrazolo[1,5-a]pyridine-2-carboxamide] | < 0.01
